Values after ≈ are worked out from the molar mass of the structure shown.
system: not listed separately; assay: In vitro antibacterial activity against gram-negative organism Pseudomonas aeruginosa DPHD-2862; assay type: functional; settings: Pseudomonas aeruginosa; read-out: MIC

Structure (SMILES)	MIC [µg/mL]
Cc1c(N2C[C@H]3CCCN[C@H]3C2)c(F)cn2c(=O)c(C(=O)O)cc(C3CC3)c12 (single isomer, unassigned)	12.5 (≈ 32.4 µM)
Cc1c(N2CCC(N)C2)c(F)cn2c(=O)c(C(=O)O)cc(C3CC3)c12 (stereo not given)	0.78 (≈ 2.26 µM)

target: T1, DNA gyrase (Escherichia coli) (UniProt P0AES6+P0AES4); assay: In vitro antibacterial activity against gram-negative organism Klebsiella pneumoniae ATCC 8045; assay type: functional; settings: not given

Structure (SMILES)	MIC [µg/mL]
Cc1c(N2C[C@H]3CCCN[C@H]3C2)c(F)cn2c(=O)c(C(=O)O)cc(C3CC3)c12 (single isomer, unassigned)	0.005 (≈ 0.013 µM)
Cc1c(N2CCC(N)C2)c(F)cn2c(=O)c(C(=O)O)cc(C3CC3)c12 (stereo not given)	0.002 (≈ 0.00579 µM)

target: T1, DNA gyrase (Escherichia coli); assay: In vitro antibacterial against gram-negative organism Escherichia coli JUHL; assay type: functional; settings: Escherichia coli K-12

Structure (SMILES)	MIC [µg/mL]
Cc1c(N2C[C@H]3CCCN[C@H]3C2)c(F)cn2c(=O)c(C(=O)O)cc(C3CC3)c12 (single isomer, unassigned)	0.05 (≈ 0.13 µM)
Cc1c(N2CCC(N)C2)c(F)cn2c(=O)c(C(=O)O)cc(C3CC3)c12 (stereo not given)	0.002 (≈ 0.00579 µM)

target: T1, DNA gyrase (Escherichia coli); assay: In vitro antibacterial activity against gram-negative organism […] ATCC 13048; assay type: functional; settings: Enterobacter aerogenes

Structure (SMILES)	MIC [µg/mL]
Cc1c(N2C[C@H]3CCCN[C@H]3C2)c(F)cn2c(=O)c(C(=O)O)cc(C3CC3)c12 (single isomer, unassigned)	0.05 (≈ 0.13 µM)
Cc1c(N2CCC(N)C2)c(F)cn2c(=O)c(C(=O)O)cc(C3CC3)c12 (stereo not given)	0.005 (≈ 0.0145 µM)

system: Streptococcus pneumoniae; assay: (§1) In vivo efficacy against Strep. administration; assay type: functional; settings: Streptococcus pneumoniae; read-out: ED50

Structure (SMILES)	ED50 [mg/kg]
Cc1c(N2C[C@H]3CCCN[C@H]3C2)c(F)cn2c(=O)c(C(=O)O)cc(C3CC3)c12 (single isomer, unassigned)	32.2
Cc1c(N2CCC(N)C2)c(F)cn2c(=O)c(C(=O)O)cc(C3CC3)c12 (stereo not given)	12.5

system: Streptococcus pneumoniae; assay: In vivo efficacy against Strep. administered; assay type: functional; settings: Streptococcus pneumoniae; read-out: ED50

Structure (SMILES)	ED50 [mg/kg]
Cc1c(N2C[C@H]3CCCN[C@H]3C2)c(F)cn2c(=O)c(C(=O)O)cc(C3CC3)c12 (single isomer, unassigned)	> 8

target: T1, DNA gyrase (Escherichia coli); assay: In vivo efficacy against Escherichia coli JUHL by subcutaneous administration; assay type: functional, organism-based; settings: Escherichia coli K-12

Structure (SMILES)	ED50 [mg/kg]
Cc1c(N2C[C@H]3CCCN[C@H]3C2)c(F)cn2c(=O)c(C(=O)O)cc(C3CC3)c12 (single isomer, unassigned)	> 1
Cc1c(N2CCC(N)C2)c(F)cn2c(=O)c(C(=O)O)cc(C3CC3)c12 (stereo not given)	0.4

target: T1, DNA gyrase (Escherichia coli); assay: not given; settings: Escherichia coli K-12

Structure (SMILES)	CC50 [µg/mL]
Cc1c(N2CCC(N)C2)c(F)cn2c(=O)c(C(=O)O)cc(C3CC3)c12 (stereo not given)	0.05 (≈ 0.145 µM)

target: T2, DNA gyrase (Staphylococcus aureus) (UniProt P0A0K8+P20831); assay: In vivo efficacy against Staphylococcus aureus NCTC-10649M after subcutaneous administration; assay type: functional, organism-based; settings: not given
T2 sequence (P0A0K8 2-644 limits assumed): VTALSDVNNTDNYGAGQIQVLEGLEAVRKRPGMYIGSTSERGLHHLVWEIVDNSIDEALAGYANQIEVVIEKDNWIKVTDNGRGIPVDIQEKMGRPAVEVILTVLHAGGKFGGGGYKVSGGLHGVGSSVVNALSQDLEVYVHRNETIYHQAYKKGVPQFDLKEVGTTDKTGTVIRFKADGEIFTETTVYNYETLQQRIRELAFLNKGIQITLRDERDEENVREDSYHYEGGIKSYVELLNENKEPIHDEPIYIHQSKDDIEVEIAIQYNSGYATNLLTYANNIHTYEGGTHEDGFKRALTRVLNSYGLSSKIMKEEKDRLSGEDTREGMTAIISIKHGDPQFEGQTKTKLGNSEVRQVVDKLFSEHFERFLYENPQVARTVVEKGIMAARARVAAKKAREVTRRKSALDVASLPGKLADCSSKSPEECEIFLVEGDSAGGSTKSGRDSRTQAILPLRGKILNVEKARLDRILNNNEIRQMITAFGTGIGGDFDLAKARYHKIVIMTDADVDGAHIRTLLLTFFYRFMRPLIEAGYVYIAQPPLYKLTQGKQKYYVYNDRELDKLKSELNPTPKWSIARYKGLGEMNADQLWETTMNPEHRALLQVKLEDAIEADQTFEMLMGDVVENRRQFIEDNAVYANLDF
T2 sequence (P20831 whole entry partner): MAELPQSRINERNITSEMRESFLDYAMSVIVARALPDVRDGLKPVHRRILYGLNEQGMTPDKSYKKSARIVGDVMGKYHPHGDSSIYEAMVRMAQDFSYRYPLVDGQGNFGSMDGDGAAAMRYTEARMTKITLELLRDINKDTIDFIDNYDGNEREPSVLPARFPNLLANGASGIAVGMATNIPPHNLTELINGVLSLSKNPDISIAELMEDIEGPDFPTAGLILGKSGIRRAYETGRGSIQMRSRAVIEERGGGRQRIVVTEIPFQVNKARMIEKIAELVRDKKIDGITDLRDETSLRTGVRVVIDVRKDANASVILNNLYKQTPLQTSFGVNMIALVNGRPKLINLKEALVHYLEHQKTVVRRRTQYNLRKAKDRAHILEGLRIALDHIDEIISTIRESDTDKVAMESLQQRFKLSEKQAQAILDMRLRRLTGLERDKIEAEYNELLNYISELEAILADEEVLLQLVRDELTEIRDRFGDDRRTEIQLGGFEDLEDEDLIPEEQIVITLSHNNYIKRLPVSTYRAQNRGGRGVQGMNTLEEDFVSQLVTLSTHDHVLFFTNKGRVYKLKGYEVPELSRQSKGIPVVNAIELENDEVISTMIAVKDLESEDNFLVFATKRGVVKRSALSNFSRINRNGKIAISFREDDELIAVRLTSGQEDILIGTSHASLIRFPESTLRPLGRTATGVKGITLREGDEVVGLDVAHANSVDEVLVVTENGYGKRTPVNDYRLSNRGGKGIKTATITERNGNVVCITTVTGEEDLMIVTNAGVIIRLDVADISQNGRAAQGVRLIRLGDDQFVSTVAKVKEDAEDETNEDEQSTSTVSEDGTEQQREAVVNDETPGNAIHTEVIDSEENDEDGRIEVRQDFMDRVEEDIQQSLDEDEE

Structure (SMILES)	ED50 [mg/kg]
Cc1c(N2C[C@H]3CCCN[C@H]3C2)c(F)cn2c(=O)c(C(=O)O)cc(C3CC3)c12 (single isomer, unassigned)	6.1
Cc1c(N2CCC(N)C2)c(F)cn2c(=O)c(C(=O)O)cc(C3CC3)c12 (stereo not given)	1

target: T1, DNA gyrase (Escherichia coli); assay: In vitro antibacterial activity against gram-negative organism Prov. stuartii CMX-640; assay type: functional; settings: Providencia stuartii

Structure (SMILES)	MIC [µg/mL]
Cc1c(N2C[C@H]3CCCN[C@H]3C2)c(F)cn2c(=O)c(C(=O)O)cc(C3CC3)c12 (single isomer, unassigned)	1.56 (≈ 4.05 µM)
Cc1c(N2CCC(N)C2)c(F)cn2c(=O)c(C(=O)O)cc(C3CC3)c12 (stereo not given)	0.2 (≈ 0.579 µM)

target: T1, DNA gyrase (Escherichia coli); assay: In vitro antibacterial activity against gram-positive organism Streptococcus bovis A-5169; assay type: functional; settings: Streptococcus equinus

Structure (SMILES)	MIC [µg/mL]
Cc1c(N2C[C@H]3CCCN[C@H]3C2)c(F)cn2c(=O)c(C(=O)O)cc(C3CC3)c12 (single isomer, unassigned)	0.05 (≈ 0.13 µM)
Cc1c(N2CCC(N)C2)c(F)cn2c(=O)c(C(=O)O)cc(C3CC3)c12 (stereo not given)	0.02 (≈ 0.0579 µM)

target: T1, DNA gyrase (Escherichia coli); assay: In vivo efficacy against Escherichia coli JUHL after oral administration; assay type: functional, organism-based; settings: Escherichia coli K-12

Structure (SMILES)	ED50 [mg/kg]
Cc1c(N2CCC(N)C2)c(F)cn2c(=O)c(C(=O)O)cc(C3CC3)c12 (stereo not given)	< 0.3

system: Streptococcus pneumoniae; assay: as §1; assay type: functional; settings: not given

Structure (SMILES)	ED50 [mg/kg]
Cc1c(N2CCC(N)C2)c(F)cn2c(=O)c(C(=O)O)cc(C3CC3)c12 (stereo not given)	6.2

target: T2, DNA gyrase (Staphylococcus aureus); assay: In vitro antibacterial activity against gram-positive organism Staphylococcus aureus NCTC-10649M; assay type: functional; settings: not given

Structure (SMILES)	MIC [µg/mL]
Cc1c(N2C[C@H]3CCCN[C@H]3C2)c(F)cn2c(=O)c(C(=O)O)cc(C3CC3)c12 (single isomer, unassigned)	0.05 (≈ 0.13 µM)
Cc1c(N2CCC(N)C2)c(F)cn2c(=O)c(C(=O)O)cc(C3CC3)c12 (stereo not given)	0.01 (≈ 0.029 µM)

system: Streptococcus pyogenes; assay: In vitro antibacterial activity against gram-positive organism Streptococcus pyogenes EES61; assay type: functional; settings: Streptococcus pyogenes; read-out: MIC

Structure (SMILES)	MIC [µg/mL]
Cc1c(N2C[C@H]3CCCN[C@H]3C2)c(F)cn2c(=O)c(C(=O)O)cc(C3CC3)c12 (single isomer, unassigned)	0.05 (≈ 0.13 µM)
Cc1c(N2CCC(N)C2)c(F)cn2c(=O)c(C(=O)O)cc(C3CC3)c12 (stereo not given)	0.02 (≈ 0.0579 µM)

system: not listed separately; assay: In vivo efficacy against Pseudomonas aeruginosa 5007 after subcutaneous administration; assay type: functional; settings: Pseudomonas aeruginosa, sc; read-out: ED50

Structure (SMILES)	ED50 [mg/kg]
Cc1c(N2C[C@H]3CCCN[C@H]3C2)c(F)cn2c(=O)c(C(=O)O)cc(C3CC3)c12 (single isomer, unassigned)	> 8
Cc1c(N2CCC(N)C2)c(F)cn2c(=O)c(C(=O)O)cc(C3CC3)c12 (stereo not given)	0.5

target: T2, DNA gyrase (Staphylococcus aureus); assay: In vitro antibacterial activity against gram-positive organism Staphylococcus aureus ATCC 6538p; assay type: functional; settings: not given

Structure (SMILES)	MIC [µg/mL]
Cc1c(N2C[C@H]3CCCN[C@H]3C2)c(F)cn2c(=O)c(C(=O)O)cc(C3CC3)c12 (single isomer, unassigned)	0.05 (≈ 0.13 µM)
Cc1c(N2CCC(N)C2)c(F)cn2c(=O)c(C(=O)O)cc(C3CC3)c12 (stereo not given)	0.01 (≈ 0.029 µM)

target: T1, DNA gyrase (Escherichia coli); assay: In vitro antibacterial activity against gram-positive organism Enterococcus faecium ATCC 8043; assay type: functional; settings: not given

Structure (SMILES)	MIC [µg/mL]
Cc1c(N2C[C@H]3CCCN[C@H]3C2)c(F)cn2c(=O)c(C(=O)O)cc(C3CC3)c12 (single isomer, unassigned)	0.1 (≈ 0.259 µM)
Cc1c(N2CCC(N)C2)c(F)cn2c(=O)c(C(=O)O)cc(C3CC3)c12 (stereo not given)	0.02 (≈ 0.0579 µM)

system: Pseudomonas aeruginosa; assay: In vivo efficacy against Pseudomonas aeruginosa 5007 following p.o. administration.; settings: not given

Structure (SMILES)	ED50 [mg/kg]
Cc1c(N2C[C@H]3CCCN[C@H]3C2)c(F)cn2c(=O)c(C(=O)O)cc(C3CC3)c12 (single isomer, unassigned)	> 50
Cc1c(N2CCC(N)C2)c(F)cn2c(=O)c(C(=O)O)cc(C3CC3)c12 (stereo not given)	4.6

system: not listed separately; assay: In vitro antibacterial activity against gram-negative organism Pseudomonas aeruginosa 5007; assay type: functional; settings: Pseudomonas aeruginosa; read-out: MIC

Structure (SMILES)	MIC [µg/mL]
Cc1c(N2C[C@H]3CCCN[C@H]3C2)c(F)cn2c(=O)c(C(=O)O)cc(C3CC3)c12 (single isomer, unassigned)	0.78 (≈ 2.02 µM)
Cc1c(N2CCC(N)C2)c(F)cn2c(=O)c(C(=O)O)cc(C3CC3)c12 (stereo not given)	0.05 (≈ 0.145 µM)

target: T2, DNA gyrase (Staphylococcus aureus); assay: In vivo efficacy against Staphylococcus aureus NCTC-10649M after oral administration; assay type: functional, organism-based; settings: not given

Structure (SMILES)	ED50 [mg/kg]
Cc1c(N2C[C@H]3CCCN[C@H]3C2)c(F)cn2c(=O)c(C(=O)O)cc(C3CC3)c12 (single isomer, unassigned)	29.3
Cc1c(N2CCC(N)C2)c(F)cn2c(=O)c(C(=O)O)cc(C3CC3)c12 (stereo not given)	4.1

target: T2, DNA gyrase (Staphylococcus aureus); assay: In vitro antibacterial activity against gram-positive organism Staphylococcus aureus 1775; assay type: functional; settings: not given

Structure (SMILES)	MIC [µg/mL]
Cc1c(N2C[C@H]3CCCN[C@H]3C2)c(F)cn2c(=O)c(C(=O)O)cc(C3CC3)c12 (single isomer, unassigned)	0.78 (≈ 2.02 µM)
Cc1c(N2CCC(N)C2)c(F)cn2c(=O)c(C(=O)O)cc(C3CC3)c12 (stereo not given)	1.56 (≈ 4.52 µM)

Reference: ChEMBL document CHEMBL1129258, “Synthesis and structure-activity relationships of 2-pyridones: a novel series of potent DNA gyrase inhibitors as antibacterial agents” (J Med Chem, 1996)
